Laboratory results: PMC9106635, “Stimulation of the atypical chemokine receptor 3 (ACKR3) by a small-molecule agonist attenuates fibrosis in a preclinical liver but not lung injury model” (Cellular and Molecular Life Sciences: CMLS, 2022)

Assays:
[1] = Compound concentration in liver and lung tissue homogenates (LC-MS/MS); assay type: in vivo, mouse; details: mean ± sem
Method: Pharmacokinetic analysis of plasma samples was performed at GVK BIO Sciences Pvt. Ltd. (Hyderabad, India). The pharmacokinetic properties of compound 18a were determined by subcutaneous administration in male C57BL/6 mice. A 30 mg/kg dose was formulated as a solution in 23% hydroxypropyl-beta-cyclodextrin (HPBCD; w/v) in water. The dose volume was 3 mL/kg. Serial blood samples were collected at 0.5, 1, 2, 4, 6, 8 and 24 h post dosing (n = 3). Plasma concentration of compound 18a was determined by a LC–MS/MS method. Chromatography was performed on a reverse phase column (Kinetex EVO, C18, 50 × 4.6 mm, 5 µ) at a flow rate of 1 mL/minute, using a gradient-elution method. Mobile Phase A was a 10 mM ammonium acetate solution with 0.1% formic acid in water, whereas mobile phase B was a mixture of acetonitrile and methanol (50:50). The gradient started at 5% B ramped up to 95% B over 1 min, held at 95% B for 1.2 min, and then ramped down to 5% B over 0.1 min, and held at 5% B for 1.2 min. The mass spectrometer was operated in positive-ionization mode and Telmisartan was used as internal standard. […] The Cmax, Tmax, AUC and half-life value (t1/2) were determined using standard non-compartmental pharmacokinetic methods. The concentration of compound 18a in liver and lung tissue was determined by LC–MS/MS at Eurofins (Vergeze, France). […] Data are expressed as mean ± sem.

[2] = Mouse plasma pharmacokinetics after subcutaneous administration; assay type: in vivo; details: 30 mg/kg subcutaneous
Method: Pharmacokinetic analysis of plasma samples was performed at GVK BIO Sciences Pvt. Ltd. (Hyderabad, India). The pharmacokinetic properties of compound 18a were determined by subcutaneous administration in male C57BL/6 mice. A 30 mg/kg dose was formulated as a solution in 23% hydroxypropyl-beta-cyclodextrin (HPBCD; w/v) in water. The dose volume was 3 mL/kg. Serial blood samples were collected at 0.5, 1, 2, 4, 6, 8 and 24 h post dosing (n = 3). Plasma concentration of compound 18a was determined by a LC–MS/MS method. Chromatography was performed on a reverse phase column (Kinetex EVO, C18, 50 × 4.6 mm, 5 µ) at a flow rate of 1 mL/minute, using a gradient-elution method. Mobile Phase A was a 10 mM ammonium acetate solution with 0.1% formic acid in water, whereas mobile phase B was a mixture of acetonitrile and methanol (50:50). The gradient started at 5% B ramped up to 95% B over 1 min, held at 95% B for 1.2 min, and then ramped down to 5% B over 0.1 min, and held at 5% B for 1.2 min. The mass spectrometer was operated in positive-ionization mode and Telmisartan was used as internal standard. Analyst software was used for the data acquisition and chromatographic-peak integration. The Cmax, Tmax, AUC and half-life value (t1/2) were determined using standard non-compartmental pharmacokinetic methods. The concentration of compound 18a in liver and lung tissue was determined by LC–MS/MS at Eurofins (Vergeze, France). Tissues harvested at the endpoint of the efficacy study (day 28 for liver, day 21 for lung), 2 h post the last compound 18a dose, were processed. Around 250 mg of the lateral right liver lobe (n = 3) and ~ 120 mg of the caudal right lung lobe (n = 4) were homogenized in water and precipitated in acetonitrile containing Irbesartan as internal standard. Further analysis was performed via a similar method as described above. Data are expressed as mean ± sem.
Pharmacokinetic parameters were calculated from plasma concentration-time data in male C57BL/6 mice (n=3). Cmax is reported as the mean ± SD.

[3] = parameters: method as in PMID 29627981; details: cited from earlier work
[4] = system: bleomycin-induced lung fibrosis in C57BL/6J mice; assay: Bleomycin-induced lung fibrosis model; assay type: in vivo, mouse; details: 15 mg/kg/dose SC BID, day 21, vs bleomycin + 23% HPBCD
Method: A preclinical mouse model for bleomycin-induced lung fibrosis was performed at the Department of Metabolic Health Research, The Netherlands Organisation for Applied Scientific Research (TNO) (Leiden, The Netherlands). Thirty-eight male C57BL/6J mice were matched on body weight prior to the study and divided into three groups (experimental study design, Supplementary Figure S1b). At day 0, 10–12-week-old mice received a single oropharyngeal administration of bleomycin (0.04U/mouse) (group 2 and 3). Control mice (group 1) received phosphate buffered saline (PBS) instead. At day 0, bleomycin-treated mice received either compound 18a (15 mg/kg/dose, subcutaneous, twice daily, group 3), or its corresponding vehicle control (23% HPBCD, subcutaneous, twice daily, group 2)]. PBS-treated mice received 23% HPBCD throughout the study (subcutaneous, twice daily, group 1). At day 21, mice were sacrificed under isoflurane anesthesia and plasma samples and lung lobes were collected. As a primary endpoint the histology lung fibrosis score (modified Ashcroft score) was used based on a Masson’s Trichrome staining on cross-sections of the left lung lobe. As a secondary endpoint collagen content (hydroxyproline) was analyzed on the medial and accessory lobes by using a chromogenic assay according to the manufacturer’s instructions (QuickZyme Biosciences, Leiden, the Netherlands).

hACKR3 = hACKR3 (Homo sapiens, UniProt P25106); assay: CXCL12^AF647 competition binding, U87.CD4.ACKR3 cells
hACKR3, sequence (P25106 whole entry): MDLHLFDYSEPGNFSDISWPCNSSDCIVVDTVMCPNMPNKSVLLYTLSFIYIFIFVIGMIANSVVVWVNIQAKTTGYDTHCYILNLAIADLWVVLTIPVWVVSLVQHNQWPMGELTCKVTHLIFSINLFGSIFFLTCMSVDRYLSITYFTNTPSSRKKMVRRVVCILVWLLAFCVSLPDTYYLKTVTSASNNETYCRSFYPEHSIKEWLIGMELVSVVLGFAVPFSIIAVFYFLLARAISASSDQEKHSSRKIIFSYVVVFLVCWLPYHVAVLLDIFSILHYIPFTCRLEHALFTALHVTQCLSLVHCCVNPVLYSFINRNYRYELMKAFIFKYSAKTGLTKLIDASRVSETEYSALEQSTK
Method: Binding affinity to human (h)CXCR4 and human (h)ACKR3 was investigated with a competition binding assay using CXCL12^AF647 (Almac, UK) as the tracer molecule. Jurkat cells (human T lymphocytic cell line, hCXCR4 positive) or U87.CD4.ACKR3 cells (human glioblastoma cell line, hACKR3 positive) were resuspended in assay buffer [Hank’s Balanced Salt Solution (HBSS, Thermo Fisher Scientific), 20 mM HEPES buffer, 0.2% bovine serum albumin (Sigma-Aldrich), pH 7.4] at 3 × 10^5 cells per sample and treated with increasing concentrations of compound at RT for 15 min. A fixed amount of CXCL12^AF647 (2.9 nM and 1.45 nM in case of hCXCR4 and hACKR3, respectively) was added and cells were incubated at RT for 30 min protected from light. Cells were finally fixed in 1% paraformaldehyde in DPBS and the CXCL12^AF647 binding signal [i.e., mean fluorescence intensity (MFI)] was quantified by flow cytometry (FACSCanto™; Becton Dickinson). Data were analyzed with FlowJo® Software. For all samples the background MFI (i.e., autofluorescence of untreated and unlabeled cells) was subtracted. The percentage inhibition for each compound concentration was calculated relative to the positive control (i.e., untreated cells exposed to CXCL12^AF647 only). Four parameter non-linear curve fitting (GraphPad Prism 9.0.2) was used to determine the IC50 value for binding inhibition.

[5] = mouse, sc, male C57BL/6 mice, plasma

concentration in lung tissue ([1]; day 21, 2 h after last subcutaneous dose (15 mg/kg BID), n=4): 1703 ± 54 ng/g tissue | concentration in liver tissue ([1]; day 28, 2 h after last subcutaneous dose (15 mg/kg BID), n=3): 2528 ± 511 ng/g tissue | time after administration for which plasma levels exceeded the target value (5.2 ng/mL) ([2]; below target at 24 h): up to 8 h | AUC [2, 5]: 6700 ng·h/mL | Tmax [2, 5]: 0.25 h | half-life [2, 5]: 5.2 h | Cmax ([2]; mouse, sc, male C57BL/6 mice, plasma, mean ± SD, n=3): 6120 ng/mL | IC50 (hACKR3; hACKR3, mean ± SD of three independent experiments): 20.5 ± 6.34 nM | higher hACKR3 binding affinity compared to compound 18b (hACKR3; ratio of IC50 values): five-fold
SMILES: CCc1ccn2ccnc2c1N1CCCN(C(CC(N)=O)C2CCN(C(=O)C3CC4CCC3O4)CC2)CC1 (centres unmarked) [compound 18a]
free fraction in mouse plasma [3]: 34% | development of lung fibrosis (modified Ashcroft score, hydroxyproline) [4]: did not counteract the development of fibrosis
